Tested on: Salmonella outer membrane
Test: Outer membrane permeabilization (NPN fluorescence)
Format: cell-based, Salmonella enterica serovar Typhimurium strain SL1344
Conditions: KFF-ASOs 10 µM, CTAB 10 µM, PMXB 0.4 µM; added after 14 min
Source text: Because the negASOs are ineffective in bacterial cells despite their activity in cell-free systems, we investigated if these ASOs affected the ability of the KFF carrier peptide to induce OM permeabilization. Therefore, we used the hydrophobic fluorophore N-phenylnaphthylamine (NPN), a dye that turns fluorescent after binding to hydrophobic regions within cell membranes. This only occurs in cells with a compromised OM ([Ghosh et al. 2016]; [Ellis et al. 2019]). […] However, when conjugated to negASOs, the KFF carrier is unable to permeabilize the OM (Fig. 10). This could potentially be due to electrostatic interactions between the negASOs and the positively charged KFF.
The experiments were performed by modifying previously published protocols ([Ghosh et al. 2016]; [Ellis et al. 2019]; [Zheng et al. 2021]). Salmonella (WT SL1344, JVS-1574) were grown overnight in 4 mL MHB medium at 37°C (with shaking at 220 rpm). Then the culture was diluted 1:100 and grown until OD600 0.5 (∼2 × 10^8 cfu/mL). This culture was harvested and washed two times with 5 mM HEPES and further diluted to OD600 0.2 in 5 mM HEPES supplemented with 5 mM Glucose (pH 7.2). These cells were then incubated with NPN (Sigma) at a final concentration of 10 µM. One hundred and ninety microliters of NPN-treated cells were transferred into 96-well back plates with transparent bottoms and fluorescence (excitation = 350 nm, emission = 420 nm) was recorded for 60 min (reading was performed every minute) using a Synergy H1 plate reader (Biotek). On the 14th minute, 10 µL of the test compounds (10 µM final concentration) was added into the wells. CTAB (Sigma) 10 µM (final concentration) or PMXB (Sigma) (final concentration of 0.4 µM) were used as positive controls, while water was used as negative control. The fluorescence of the wells was monitored using the same settings as above. The plots were created using OrginPro 2023. The experiment was performed twice and Figure 10 is a representative example of two independent experiments.

| Compound | Outer membrane permeabilization, NPN fluorescence (in words) |
| --- | --- |
| Polymyxin B [reference compound] | cause a rapid increase in fluorescence |
| CCCCCCCCCCCCCCCC[N+](C)(C)C.[Br-] [CTAB, reference compound] | cause a rapid increase in fluorescence |

Source: publication PMC11098465, “A comparative analysis of peptide-delivered antisense antibiotics using diverse nucleotide mimics” (RNA, 2024)
